Data on seven molecules can be found in US20250213701A1, “MEDICAMENT FOR TREATING HUMAN TUMOR BASED ON ERF3A-TARGETING PROTEOLYSIS MECHANISM” (SUZHOU DEGEN BIO-MEDICAL CO., LTD., priority 2022, published 2025).

Assay type in all cases: cell-based, human
Assay [1] relates to VCaP cells. Put plainly: Anti-proliferative toxicity against prostate cancer cell line Vcap (CCK8). The following applies: Homo sapiens, 72 h, 3 days, CCK8. Summed up:
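VCaP cells (DMEM, 10% FBS) seeded 20000 cells/well, cultured 72 h, then exposed in triplicate to compound at final well concentrations of 0.00001–0.16 μM for 3 days at 37 °C, 5% CO2. Viability by CCK8, 1–4 h at 37 °C, absorbance at 450 nm.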

The subject of assay [2] is 22Rv1 cells. Nature of the assay: Anti-proliferative toxicity against prostate cancer cell line 22Rv1 (CCK8). The following applies: Homo sapiens, 72 h, 3 days, CCK8. The procedure, abridged:
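22Rv1 cells pre-cultured for 48 h, then exposed to compounds at 0.00001-1.0 μM final, in triplicate, for 3 days. Viability read by CCK8 absorbance at 450 nm after 1-4 h at 37 °C.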

The test system of assay [3] is PC-3 cells. Nature of the assay: Anti-proliferative toxicity against prostate cancer cell line PC-3 (CCK8). The following applies: Homo sapiens, 72 h, 3 days. The procedure, abridged:
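PC-3 cells (4000/well, pre-cultured 24 h) exposed in triplicate to compound at final 0.00001-1.0 μM for 3 days at 37 °C, 5% CO2. Viability read by CCK8, 1-4 h at 37 °C, absorbance at 450 nm.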

Take `C[C@]12C=CC(=O)N[C@@H]1CC[C@@H]1[C@@H]2CC[C@]2(C)[C@@H](C(=O)Nc3ccc(OCCCCCCNc4cccc5c4C(=O)N(C4CCC(=O)NC4=O)C5=O)cc3)CC[C@@H]12` (stereo partly drawn) [C21, N-(4-((6-((4-(2-(3-(2,6-dioxopiperidine))-isoindole-1,3-dione))amino)hexyl)oxy)phenyl)-3-oxo-4-aza-5α-androst-1-ene-17β-carboxamide]: the IC50 in assay [1], in assay [2] and in assay [3] was above 1000 nM in each case.
With `C[C@]12C=CC(=O)N[C@@H]1CC[C@@H]1[C@@H]2CC[C@]2(C)[C@@H](C(=O)Nc3ccc(OCCNc4cccc5c4C(=O)N(C4CCC(=O)NC4=O)C5=O)cc3)CC[C@@H]12` (stereo partly drawn) [C15, N-(4-((2-((4-(2-(3-(2,6-dioxopiperidine))-isoindole-1,3-dione))amino)ethyl)oxy)phenyl)-3-oxo-4-aza-5α-androst-1-ene-17β-carboxamide], the 50% inhibitory concentration (IC50) in assay [1] was 10 to 1000 nM; in assay [2] it was above 1000 nM; in assay [3] it was above 1000 nM.
Turning to `C[C@]12C=CC(=O)N[C@@H]1CC[C@@H]1[C@@H]2CC[C@]2(C)[C@@H](C(=O)Nc3cccc(NC4CCCC(Nc5cccc6c5C(=O)N(C5CCC(=O)NC5=O)C6=O)C4)c3)CC[C@@H]12` (stereo partly drawn) [C58, N-(3-(N—(N-(4-(2-(3-(2,6-dioxopiperidine))-isoindole-1,3-dione))cyclohexanediamine))phenyl)-3-oxo-4-aza-5α-androst-1-ene-17β-carboxamide], the IC50 in assay [1] fell in the range of 0.1 to 10 nM; in assay [2], 0.1 to 10 nM; in assay [3] it was 10 to 1000 nM.
In the case of `C[C@]12C=CC(=O)N[C@@H]1CC[C@@H]1[C@@H]2CC[C@]2(C)[C@@H](C(=O)Nc3cccc(NC4CCC(Nc5cccc6c5C(=O)N(C5CCC(=O)NC5=O)C6=O)CC4)c3)CC[C@@H]12` (stereo partly drawn) [C54, N-(3-((4-((4-(2-(3-(2,6-dioxopiperidine))-isoindole-1,3-dione))amino)cyclohexyl)amino)phenyl)-3-oxo-4-aza-5α-androst-1-ene-17β-carboxamide], the IC50 in assay [1], in assay [2] and in assay [3] was above 1000 nM each time.
Take `C[C@]12C=CC(=O)N[C@@H]1CC[C@@H]1[C@@H]2CC[C@]2(C)[C@@H](C(=O)Nc3cccc(N[C@@H]4COC[C@@H](Nc5cccc6c5C(=O)N(C5CCC(=O)NC5=O)C6=O)C4)c3)CC[C@@H]12` (stereo partly drawn) [C75, N-(3-(N—(N-(4-(2-(3-(2,6-dioxopiperidine))-isoindole-1,3-dione))-tetrahydropyran-3S,5S-diamine))phenyl)-3-oxo-4-aza-5α-androst-1-ene-17β-carboxamide]: the IC50 in assay [1], in assay [2] and in assay [3] was 10 to 1000 nM in each case.
Consider `C[C@]12C=CC(=O)N[C@@H]1CC[C@@H]1[C@@H]2CC[C@]2(C)[C@@H](C(=O)Nc3ccc(OCCCCCCNc4ccc5c(c4)C(=O)N(C4CCC(=O)NC4=O)C5=O)cc3)CC[C@@H]12` (stereo partly drawn) [C22, N-(4-((6-((5-(2-(3-(2,6-dioxopiperidine))-isoindole-1,3-dione))amino)hexyl)oxy)phenyl)-3-oxo-4-aza-5α-androst-1-ene-17β-carboxamide], for which the IC50 in assay [1], in assay [2] and in assay [3] was above 1000 nM throughout.
`C[C@]12C=CC(=O)N[C@@H]1CC[C@@H]1[C@@H]2CC[C@]2(C)[C@@H](C(=O)Nc3cccc(N[C@H]4C[C@H](Nc5cccc6c5C(=O)N(C5CCC(=O)NC5=O)C6=O)CC(F)(F)C4)c3)CC[C@@H]12` (stereo partly drawn) [C74, N-(3-(N—(N-(4-(2-(3-(2,6-dioxopiperidine))-isoindole-1,3-dione))-5,5-difluoro-1S,3S-cyclohexanediamine))phenyl)-3-oxo-4-aza-5α-androst-1-ene-17β-carboxamide]: the IC50 in assay [1] is 0.1 to 10 nM; in assay [2], 0.1 to 10 nM; in assay [3], 10 to 1000 nM.

Broadly, the IC50 is the concentration needed to halve the response being measured. The low end stands for higher potency, the high end for lower potency.
